Experimental findings from article PMC8550792, “Evolution of kinase polypharmacology across HSP90 drug discovery” (Cell Chemical Biology, 2021) are described below.

The structures appear in SMILES notation.

Common to all, as to assay: biochemical
Assay type in all cases: biochemical

Experiment [1] addresses T1, 382 unique human kinases (Homo sapiens, UniProt O43293).
T1 construct: purchased Reaction Biology (HotSpot contract assay)
The conditions noted are these: kinase ZIPK/DAPK3, compound 10 uM; for remaining activity at 10 µM: read-out: % Enzyme Activity (relative to DMSO controls).

Experiment [2] concerns the target T2, 382 unique human kinases (Homo sapiens, UniProt Q14164).
T2 construct: purchased Reaction Biology (HotSpot contract assay)
T2 sequence (Q14164 1-716): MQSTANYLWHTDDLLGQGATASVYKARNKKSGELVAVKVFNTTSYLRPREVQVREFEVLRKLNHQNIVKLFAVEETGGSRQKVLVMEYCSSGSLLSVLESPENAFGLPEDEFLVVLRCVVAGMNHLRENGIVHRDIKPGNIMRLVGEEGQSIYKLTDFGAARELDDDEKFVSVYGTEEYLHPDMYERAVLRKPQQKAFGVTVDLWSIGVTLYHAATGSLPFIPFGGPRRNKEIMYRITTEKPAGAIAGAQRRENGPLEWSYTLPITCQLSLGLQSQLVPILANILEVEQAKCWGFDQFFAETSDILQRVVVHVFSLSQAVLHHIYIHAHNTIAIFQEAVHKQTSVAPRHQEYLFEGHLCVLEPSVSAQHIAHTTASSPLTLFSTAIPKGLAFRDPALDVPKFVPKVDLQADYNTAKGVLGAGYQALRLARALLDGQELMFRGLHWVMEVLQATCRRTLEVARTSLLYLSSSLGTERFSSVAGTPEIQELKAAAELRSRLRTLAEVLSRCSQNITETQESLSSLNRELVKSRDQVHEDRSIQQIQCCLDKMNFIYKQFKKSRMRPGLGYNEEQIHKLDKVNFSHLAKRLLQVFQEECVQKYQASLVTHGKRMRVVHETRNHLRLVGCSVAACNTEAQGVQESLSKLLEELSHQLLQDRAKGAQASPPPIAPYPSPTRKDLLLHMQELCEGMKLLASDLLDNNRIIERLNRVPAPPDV
The conditions noted are these: kinase IKKe/IKBKE, compound 10 uM; for remaining activity at 10 µM: read-out: % Enzyme Activity (relative to DMSO controls).

Experiment [3] deals with T3, 382 unique human kinases (Homo sapiens, UniProt Q96QT4).
T3 construct: purchased Reaction Biology (HotSpot contract assay)
The note with it: kinase TRPM7/CHAK1, compound 10 uM; for remaining activity at 10 µM: read-out: % Enzyme Activity (relative to DMSO controls).

In experiment [4] the target is T4, 382 unique human kinases (Homo sapiens, UniProt Q86Z02).
T4 construct: purchased Reaction Biology (HotSpot contract assay)
T4 sequence (Q86Z02 whole entry): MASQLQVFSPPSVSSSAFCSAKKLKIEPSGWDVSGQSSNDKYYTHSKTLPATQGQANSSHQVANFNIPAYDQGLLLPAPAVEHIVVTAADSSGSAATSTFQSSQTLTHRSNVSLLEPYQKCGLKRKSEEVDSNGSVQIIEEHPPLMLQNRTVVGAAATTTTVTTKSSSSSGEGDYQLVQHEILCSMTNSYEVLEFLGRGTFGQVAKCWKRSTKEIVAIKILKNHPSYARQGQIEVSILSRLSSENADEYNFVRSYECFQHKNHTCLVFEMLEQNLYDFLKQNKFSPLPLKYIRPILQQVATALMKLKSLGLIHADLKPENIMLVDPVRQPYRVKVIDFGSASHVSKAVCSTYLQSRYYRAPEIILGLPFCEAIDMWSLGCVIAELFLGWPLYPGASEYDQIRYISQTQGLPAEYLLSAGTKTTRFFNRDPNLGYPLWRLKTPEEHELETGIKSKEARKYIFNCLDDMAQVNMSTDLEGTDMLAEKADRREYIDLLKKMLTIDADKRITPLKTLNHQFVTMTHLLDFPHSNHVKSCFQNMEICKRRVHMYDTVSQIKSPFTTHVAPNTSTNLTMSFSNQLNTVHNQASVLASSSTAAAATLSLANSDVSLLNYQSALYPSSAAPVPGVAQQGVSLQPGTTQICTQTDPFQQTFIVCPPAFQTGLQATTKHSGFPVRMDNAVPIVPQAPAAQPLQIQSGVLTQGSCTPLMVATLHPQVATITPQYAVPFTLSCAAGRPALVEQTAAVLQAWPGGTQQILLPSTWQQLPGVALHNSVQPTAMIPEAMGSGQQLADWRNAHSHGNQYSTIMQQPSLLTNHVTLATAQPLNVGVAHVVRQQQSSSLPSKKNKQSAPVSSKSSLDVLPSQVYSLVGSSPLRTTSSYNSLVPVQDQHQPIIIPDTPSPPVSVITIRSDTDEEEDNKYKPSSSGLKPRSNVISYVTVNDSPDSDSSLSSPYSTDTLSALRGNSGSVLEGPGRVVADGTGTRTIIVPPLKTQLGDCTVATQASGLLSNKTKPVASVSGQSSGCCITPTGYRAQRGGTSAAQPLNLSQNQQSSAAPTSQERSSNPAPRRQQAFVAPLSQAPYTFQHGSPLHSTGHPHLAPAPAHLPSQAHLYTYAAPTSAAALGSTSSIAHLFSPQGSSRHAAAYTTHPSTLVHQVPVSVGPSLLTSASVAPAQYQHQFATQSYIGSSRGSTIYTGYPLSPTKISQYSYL
The note with it: HIPK1, compound at 10 uM, duplicate values; for remaining activity at 10 µM: read-out: % Enzyme Activity (relative to DMSO controls).

Experiment [5] addresses T5, 382 unique human kinases (Homo sapiens, UniProt Q86Y07).
T5 construct: purchased Reaction Biology (HotSpot contract assay)
The note with it: kinase VRK2, compound 10 uM; for remaining activity at 10 µM: read-out: % Enzyme Activity (relative to DMSO controls).

For experiment [6], the target named is T6, 382 unique human kinases (Homo sapiens, UniProt P36894).
T6 construct: purchased Reaction Biology (HotSpot contract assay)
The conditions noted are these: ALK3/BMPR1A, 10 uM; for remaining activity at 10 µM: read-out: % Enzyme Activity (relative to DMSO controls).

The target of experiment [7] is T7, 382 unique human kinases (Homo sapiens, UniProt P43403, Y319F).
T7 construct: purchased Reaction Biology (HotSpot contract assay)
T7 sequence (P43403 1-619 Y319F): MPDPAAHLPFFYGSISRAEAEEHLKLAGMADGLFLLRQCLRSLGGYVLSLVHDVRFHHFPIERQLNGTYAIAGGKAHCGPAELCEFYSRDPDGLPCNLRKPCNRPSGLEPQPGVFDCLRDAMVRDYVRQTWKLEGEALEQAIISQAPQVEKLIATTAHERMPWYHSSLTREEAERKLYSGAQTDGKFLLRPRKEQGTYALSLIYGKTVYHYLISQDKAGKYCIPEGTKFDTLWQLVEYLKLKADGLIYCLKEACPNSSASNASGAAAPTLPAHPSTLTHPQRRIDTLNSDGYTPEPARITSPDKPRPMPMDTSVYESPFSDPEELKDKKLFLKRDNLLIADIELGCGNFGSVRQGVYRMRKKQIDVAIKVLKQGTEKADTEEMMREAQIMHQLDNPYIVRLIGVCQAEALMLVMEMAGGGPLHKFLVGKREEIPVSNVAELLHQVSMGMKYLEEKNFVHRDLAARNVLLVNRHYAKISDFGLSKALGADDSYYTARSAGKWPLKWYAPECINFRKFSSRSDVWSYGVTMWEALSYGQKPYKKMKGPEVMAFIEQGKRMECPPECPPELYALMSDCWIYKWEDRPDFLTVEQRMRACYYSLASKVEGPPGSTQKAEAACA
The conditions noted are these: ZAP70 (Y319F), 10 uM; for remaining activity at 10 µM: read-out: % Enzyme Activity (relative to DMSO controls).

The target in experiment [8] is T8, 382 unique human kinases (Homo sapiens, UniProt Q02750).
T8 construct: purchased Reaction Biology (HotSpot contract assay)
T8 sequence (Q02750 whole entry): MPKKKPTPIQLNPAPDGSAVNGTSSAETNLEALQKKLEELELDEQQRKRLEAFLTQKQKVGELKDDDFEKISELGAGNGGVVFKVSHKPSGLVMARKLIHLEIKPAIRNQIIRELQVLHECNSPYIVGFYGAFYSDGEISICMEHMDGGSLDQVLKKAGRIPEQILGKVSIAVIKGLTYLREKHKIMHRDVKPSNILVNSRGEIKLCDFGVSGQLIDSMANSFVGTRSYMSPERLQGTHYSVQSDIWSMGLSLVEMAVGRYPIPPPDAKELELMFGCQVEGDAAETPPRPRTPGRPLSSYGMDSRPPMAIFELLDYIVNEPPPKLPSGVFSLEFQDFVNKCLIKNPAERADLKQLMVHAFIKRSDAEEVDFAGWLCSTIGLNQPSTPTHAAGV
The note with it: kinase MEK1, compound 10 uM; for remaining activity at 10 µM: read-out: % Enzyme Activity (relative to DMSO controls).

In experiment [9] the target is T9, 382 unique human kinases (Homo sapiens, UniProt Q9H3Y6).
T9 construct: purchased Reaction Biology (HotSpot contract assay)
The conditions noted are these: SRMS, compound at 10 uM, duplicate values; for remaining activity at 10 µM: read-out: % Enzyme Activity (relative to DMSO controls).

In experiment [10] the target is T10, 382 unique human kinases (Homo sapiens, UniProt P51957).
T10 construct: purchased Reaction Biology (HotSpot contract assay)
The conditions noted are these: NEK4, 10 uM; for remaining activity at 10 µM: read-out: % Enzyme Activity (relative to DMSO controls).

Experiment [11] has as its target T11, 382 unique human kinases (Homo sapiens, UniProt Q9H792).
T11 construct: purchased Reaction Biology (HotSpot contract assay)
The note with it: PEAK1, [ATP] 30 µM.

For experiment [12], the target named is T12, 382 unique human kinases (Homo sapiens, UniProt Q9UK32).
T12 construct: purchased Reaction Biology (HotSpot contract assay)
T12 sequence (Q9UK32 whole entry): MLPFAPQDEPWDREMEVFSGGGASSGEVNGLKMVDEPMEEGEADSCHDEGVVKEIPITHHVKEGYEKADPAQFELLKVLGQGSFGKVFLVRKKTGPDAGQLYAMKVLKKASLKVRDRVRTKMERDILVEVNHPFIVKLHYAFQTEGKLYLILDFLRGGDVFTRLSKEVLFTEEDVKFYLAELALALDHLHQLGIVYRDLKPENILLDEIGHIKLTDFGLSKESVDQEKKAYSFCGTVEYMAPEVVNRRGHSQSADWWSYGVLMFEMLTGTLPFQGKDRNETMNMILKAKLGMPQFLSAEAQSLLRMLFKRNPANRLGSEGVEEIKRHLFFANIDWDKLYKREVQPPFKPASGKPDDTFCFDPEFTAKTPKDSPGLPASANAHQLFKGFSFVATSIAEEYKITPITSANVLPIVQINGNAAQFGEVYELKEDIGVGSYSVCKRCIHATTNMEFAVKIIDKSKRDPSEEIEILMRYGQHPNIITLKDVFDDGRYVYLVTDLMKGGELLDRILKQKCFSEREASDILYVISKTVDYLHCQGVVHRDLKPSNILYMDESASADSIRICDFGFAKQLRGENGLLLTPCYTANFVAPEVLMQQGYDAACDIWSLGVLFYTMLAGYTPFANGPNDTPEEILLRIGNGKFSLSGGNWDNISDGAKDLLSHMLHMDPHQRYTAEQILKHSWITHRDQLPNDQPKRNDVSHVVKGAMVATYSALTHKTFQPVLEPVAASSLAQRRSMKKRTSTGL
The conditions noted are these: RSK4, [ATP] 30 µM, compound 10 uM; for remaining activity at 10 µM: read-out: % Enzyme Activity (relative to DMSO controls).

Setting [13] is: compound 10 uM, read-out: % Enzyme Activity (relative to DMSO controls).

T5 sequence (Q86Y07 whole entry): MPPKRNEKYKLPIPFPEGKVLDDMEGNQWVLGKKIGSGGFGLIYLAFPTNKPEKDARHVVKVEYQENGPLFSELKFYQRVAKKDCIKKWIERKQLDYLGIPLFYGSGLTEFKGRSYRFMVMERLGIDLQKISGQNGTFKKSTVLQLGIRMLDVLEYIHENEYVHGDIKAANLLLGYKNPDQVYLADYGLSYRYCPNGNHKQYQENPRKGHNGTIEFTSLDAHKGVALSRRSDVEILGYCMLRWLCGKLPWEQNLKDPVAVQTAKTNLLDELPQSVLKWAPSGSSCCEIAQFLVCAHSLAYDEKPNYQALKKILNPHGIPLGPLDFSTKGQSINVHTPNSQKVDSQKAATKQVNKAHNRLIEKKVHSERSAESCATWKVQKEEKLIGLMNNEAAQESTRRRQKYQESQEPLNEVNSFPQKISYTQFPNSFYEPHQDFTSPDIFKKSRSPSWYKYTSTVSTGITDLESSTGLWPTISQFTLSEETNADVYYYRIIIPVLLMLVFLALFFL
T11 sequence (Q9H792 whole entry): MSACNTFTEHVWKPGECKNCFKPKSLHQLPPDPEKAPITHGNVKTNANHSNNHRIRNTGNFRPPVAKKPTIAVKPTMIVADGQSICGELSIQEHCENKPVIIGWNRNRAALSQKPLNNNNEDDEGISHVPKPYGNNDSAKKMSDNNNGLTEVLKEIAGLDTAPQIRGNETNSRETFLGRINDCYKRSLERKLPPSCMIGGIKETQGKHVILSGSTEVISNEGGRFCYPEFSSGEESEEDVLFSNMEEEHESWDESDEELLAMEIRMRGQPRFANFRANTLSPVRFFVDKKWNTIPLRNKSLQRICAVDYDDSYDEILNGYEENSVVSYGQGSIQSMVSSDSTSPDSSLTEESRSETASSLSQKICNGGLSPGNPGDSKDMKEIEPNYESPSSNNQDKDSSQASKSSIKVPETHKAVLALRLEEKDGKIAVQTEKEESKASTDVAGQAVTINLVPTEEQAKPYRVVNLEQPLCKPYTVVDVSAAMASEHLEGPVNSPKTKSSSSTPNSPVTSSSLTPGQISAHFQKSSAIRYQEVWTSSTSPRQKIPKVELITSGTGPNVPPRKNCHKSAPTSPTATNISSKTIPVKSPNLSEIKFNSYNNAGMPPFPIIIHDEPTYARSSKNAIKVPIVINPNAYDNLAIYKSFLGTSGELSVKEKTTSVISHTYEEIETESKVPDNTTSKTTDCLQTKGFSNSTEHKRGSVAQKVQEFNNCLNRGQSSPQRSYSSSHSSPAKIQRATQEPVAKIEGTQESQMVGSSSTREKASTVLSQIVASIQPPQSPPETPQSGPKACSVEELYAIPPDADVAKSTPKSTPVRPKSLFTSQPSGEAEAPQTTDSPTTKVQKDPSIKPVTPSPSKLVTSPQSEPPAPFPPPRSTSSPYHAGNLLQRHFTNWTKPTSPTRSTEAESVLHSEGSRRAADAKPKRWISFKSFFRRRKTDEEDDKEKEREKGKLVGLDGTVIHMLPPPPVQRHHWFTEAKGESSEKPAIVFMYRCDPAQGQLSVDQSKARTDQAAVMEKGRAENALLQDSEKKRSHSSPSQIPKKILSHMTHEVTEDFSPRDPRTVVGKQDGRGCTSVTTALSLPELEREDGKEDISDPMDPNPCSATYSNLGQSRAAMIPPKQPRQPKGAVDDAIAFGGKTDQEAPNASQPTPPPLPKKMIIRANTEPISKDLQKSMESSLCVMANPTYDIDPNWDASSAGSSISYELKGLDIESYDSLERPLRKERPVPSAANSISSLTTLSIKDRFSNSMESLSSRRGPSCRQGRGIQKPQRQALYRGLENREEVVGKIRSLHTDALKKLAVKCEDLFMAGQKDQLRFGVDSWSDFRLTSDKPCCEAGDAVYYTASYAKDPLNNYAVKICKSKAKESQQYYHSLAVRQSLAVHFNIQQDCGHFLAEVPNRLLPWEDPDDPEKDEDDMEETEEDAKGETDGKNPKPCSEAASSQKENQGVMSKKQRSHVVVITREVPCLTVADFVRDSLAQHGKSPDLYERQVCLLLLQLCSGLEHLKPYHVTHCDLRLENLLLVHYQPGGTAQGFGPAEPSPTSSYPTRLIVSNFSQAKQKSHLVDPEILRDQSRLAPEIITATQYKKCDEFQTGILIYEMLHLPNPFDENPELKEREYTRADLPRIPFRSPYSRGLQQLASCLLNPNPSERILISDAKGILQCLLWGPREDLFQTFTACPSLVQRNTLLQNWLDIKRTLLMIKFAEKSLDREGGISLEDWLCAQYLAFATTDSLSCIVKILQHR
T1 sequence (O43293 whole entry): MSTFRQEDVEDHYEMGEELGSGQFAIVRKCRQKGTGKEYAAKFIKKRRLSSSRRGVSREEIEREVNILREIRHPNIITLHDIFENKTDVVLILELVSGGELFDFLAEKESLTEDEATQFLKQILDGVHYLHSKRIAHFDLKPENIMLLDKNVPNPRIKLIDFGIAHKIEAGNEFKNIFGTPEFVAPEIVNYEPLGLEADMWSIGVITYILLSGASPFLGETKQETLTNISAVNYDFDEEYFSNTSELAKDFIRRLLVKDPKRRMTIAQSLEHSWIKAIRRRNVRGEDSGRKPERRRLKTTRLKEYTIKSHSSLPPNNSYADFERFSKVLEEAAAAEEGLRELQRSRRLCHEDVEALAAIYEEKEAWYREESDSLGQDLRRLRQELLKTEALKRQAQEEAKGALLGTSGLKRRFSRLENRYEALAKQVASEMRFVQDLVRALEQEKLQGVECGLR

As to `CC(C)c1cc(-c2n[nH]c(=O)n2-c2ccc3c(ccn3C)c2)c(O)cc1O` [Ganetespib (STA9090)], the remaining activity at 10 µM was 89.8% on 382 unique human kinases [1]; 95.7% at 382 unique human kinases [2]; 92.2% on 382 unique human kinases [3]; 133% on 382 unique human kinases [4]; 91.2% on 382 unique human kinases [5]; 59.1% on 382 unique human kinases [6]. Further, the remaining activity at 10 µM at 382 unique human kinases [7] was found to be 88.4%; on 382 unique human kinases [8], 90.3%; at 382 unique human kinases [9], 109%.

For `CC(C)c1cc(-c2n[nH]c(=O)n2-c2ccc3c(ccn3C)c2)c(O)cc1O` [Ganetespib], the remaining activity at 10 µM at 382 unique human kinases [10] is 95.1%; on 382 unique human kinases [11] (setting [13]) it was 10.2%; at 382 unique human kinases [12] it was 27.5%. In addition, on 382 unique human kinases [11] (compound 1 uM, read-out: % Enzyme Activity (relative to DMSO controls)), the remaining activity at 1 µM was 43.5%.

Turning to `CCNC(=O)c1noc(-c2cc(C(C)C)c(O)cc2O)c1-c1ccc(CN2CCOCC2)cc1` [Luminespib (AUY-922)], the “% Enzyme Activity (relative to DMSO controls)” value on 382 unique human kinases [1] worked out at 97.96%; at 382 unique human kinases [2], 104.37%; at 382 unique human kinases [3], 98.95%; on 382 unique human kinases [4], 102.12%; at 382 unique human kinases [5] it was 100.26%; on 382 unique human kinases [6], 99.39%. The “% Enzyme Activity (relative to DMSO controls)” value amounted to 63.89% at 382 unique human kinases [7], 95.75% on 382 unique human kinases [8] and 110.03% at 382 unique human kinases [9]. The remaining activity at 10 µM at 382 unique human kinases [1] stood at 98.6%; on 382 unique human kinases [2], 109%; at 382 unique human kinases [3], 101%; at 382 unique human kinases [4], 104%; on 382 unique human kinases [5], 102%; at 382 unique human kinases [6], 100%. Also, the results for the remaining activity at 10 µM at 382 unique human kinases [7], at 382 unique human kinases [8] and at 382 unique human kinases [9] were 68.9%, 95.8% and 111%, respectively.

In the case of `CCNC(=O)c1noc(-c2cc(C(C)C)c(O)cc2O)c1-c1ccc(CN2CCOCC2)cc1` [Luminespib], the “% Enzyme Activity (relative to DMSO controls)” value at 382 unique human kinases [10] is listed as 95.18%; on 382 unique human kinases [11] (compound 10 uM) it was 29.19%; at 382 unique human kinases [12] it was 94.35%. Further, the remaining activity at 10 µM at 382 unique human kinases [10] was determined as 95.4%; at 382 unique human kinases [11] (setting [13]), 30.1%; at 382 unique human kinases [12] it was 96%.
